Reference: US8058242B2, “Chimeric proteins with natriuretic activity” (The University of Queensland, priority 2004, dated 2011)
Positions of bridges follow the written chain, without caps; N, C: chain ends. Non-standard residues stand in square brackets, D forms with d. Residues, ends and D or L forms follow the SMILES beside them. No end group written: not given here. Cha = N[C@@H](CC1CCCCC1)C(=O)O; pGlu = O=C1CC[C@@H](C(=O)O)N1

Assays:
[1] = system: denuded aortic rings, GC A receptor; assay: Relaxation of noradrenaline constricted endothelium-denuded aortic rings (Example 11); set-up: species or system rat; conditions: GC-A mediated
Protocol: Male Sprague Dawley rats were killed and the descending thoracic aorta rapidly removed and flushed with physiological solution. After being cleared of adhering fat and connective tissue, 5 mm rings were mounted under 10 g resting tension, between two stainless steel hooks, in organ baths (37° C.) containing carbogenated (95% O2 and 5% CO2) physiological salt solution of the following composition (mM): NaCl, 118.4; NaHCO3, 25; glucose, 11; KCl, 4.7; MgSO4, 1.2; KH2PO4, 1.2 and CaCl2, 2.5. The lower hook was attached to a tissue holder and the upper hook to a force displacement transducer (Grass FTO3). Where indicated endothelial cells were removed by gentle rubbing of the intimal surface with a wire. To confirm the presence or absence of endothelial cells, tissues were precontracted with a sub-maximal concentration of phenylephrine (0.3 μM) and the response to acetylcholine (ACh, 10 μM) observed. Ach-induced relaxation greater than 80% of maximum indicated the presence of endothelium; whereas Ach-induced relaxation less than 10% indicated the absence of endothelium. Ring preparations under resting tension were conditioned by two contraction/relaxation cycles with 40 mM KCl, contracted by a third application of 40 mM KCl and then relaxed with different doses of the venom peptides. Responses were expressed as a percentage relaxation of the precontraction by KCl.
In addition to the peptides tested in example 3, a series of 13 analogs corresponding to the 2a, 2b and 2c grouping of peptides were examined for their ability to dilate noradrenaline constricted aortic rings. The degree of constriction was expressed as a percentage of the KCl induced constriction. The aortic rings were prepared in a manner similar to the method described in example 3. […]. In each case there were at least 3 separate aortic rings tested per peptide and all were denuded of endothelium to ensure responses were confined to the GC A receptor.

[2] = target: T1, Natriuretic Peptide Receptor-A (NPR-A) signaling in MDCK cells (Canis lupus familiaris, UniProt A0A8I3MHU3); assay type: cell-based, canine; conditions: stimulation of cGMP accumulation in MDCK cells; for EC50: read-out: EC50 (M) ± Standard Error
T1 sequence (A0A8I3MHU3 32-1060): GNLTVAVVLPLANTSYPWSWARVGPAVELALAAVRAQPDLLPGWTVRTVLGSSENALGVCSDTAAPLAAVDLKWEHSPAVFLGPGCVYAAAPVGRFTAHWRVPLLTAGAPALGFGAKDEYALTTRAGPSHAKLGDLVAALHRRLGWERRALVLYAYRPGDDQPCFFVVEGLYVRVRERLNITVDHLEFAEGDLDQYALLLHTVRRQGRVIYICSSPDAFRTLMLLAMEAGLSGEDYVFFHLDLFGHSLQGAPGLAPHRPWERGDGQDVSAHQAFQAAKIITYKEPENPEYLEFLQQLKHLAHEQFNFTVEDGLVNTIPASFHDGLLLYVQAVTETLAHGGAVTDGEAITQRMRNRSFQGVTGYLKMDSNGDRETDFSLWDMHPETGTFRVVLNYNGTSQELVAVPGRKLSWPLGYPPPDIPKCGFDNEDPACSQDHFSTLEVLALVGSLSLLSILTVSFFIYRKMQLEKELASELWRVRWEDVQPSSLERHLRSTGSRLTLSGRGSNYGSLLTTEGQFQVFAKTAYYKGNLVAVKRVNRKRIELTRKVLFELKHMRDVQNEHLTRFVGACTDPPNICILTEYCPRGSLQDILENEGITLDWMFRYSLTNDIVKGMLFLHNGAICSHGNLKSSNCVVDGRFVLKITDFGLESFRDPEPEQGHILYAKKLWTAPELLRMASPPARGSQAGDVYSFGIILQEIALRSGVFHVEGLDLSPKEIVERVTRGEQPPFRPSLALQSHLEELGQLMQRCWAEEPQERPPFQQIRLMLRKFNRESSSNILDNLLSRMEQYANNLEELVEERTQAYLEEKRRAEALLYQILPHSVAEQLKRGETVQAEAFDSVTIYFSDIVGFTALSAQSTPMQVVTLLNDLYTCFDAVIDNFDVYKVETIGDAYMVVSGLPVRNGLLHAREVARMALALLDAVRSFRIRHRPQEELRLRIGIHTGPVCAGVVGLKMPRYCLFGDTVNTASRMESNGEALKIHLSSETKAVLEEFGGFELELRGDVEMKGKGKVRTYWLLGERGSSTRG

conscious rabbits = assay: Blood pressure and heart rate in conscious rabbits, intravenous infusion dose-response (Example 8); conditions: for recovery of MAP, in words: 2 hours after infusion; for MAP at final dose / Recovery (MAP) / Recovery Delta SED (MAP) / Treatment Effect, change of mean blood pressure during the infusion: Table 10B; for Recovery (MAP) / Recovery Delta SED (MAP): after a 2 hour recovery period; for Treatment Effect, change of mean blood pressure during the infusion: final dose, groups 2B and 2C

Row | Compound | Mean relaxation SEM of denuded aortic rings expressed as % of KCl response [1] [%] | −Log10 EC50 (pEC50) ± Standard Error [2] | EC50 [2] [M] | recovery of MAP, in words (conscious rabbits) | MAP at final dose (conscious rabbits) [mm Hg] | Recovery (MAP) (conscious rabbits) [mm Hg] | Recovery Delta SED (MAP) (conscious rabbits) [mm Hg] | Treatment Effect, change of mean blood pressure during the infusion (conscious rabbits) [mm Hg]
1 | CC[C@H](C)[C@H](NC(=O)[C@H](CCCCN)NC(=O)[C@H](CO)NC(=O)[C@H](CC(=O)O)NC(=O)[C@@H](N)CO)C(=O)NCC(=O)N[C@@H](C)C(=O)NCC(=O)N[C@H]1CSSC[C@@H](C(=O)N[C@@H](CC(N)=O)C(=O)N[C@@H](CCCNC(=N)N)C(=O)N[C@H](C(=O)N[C@@H](CCSC)C(=O)N[C@@H](CCC(N)=O)C(=O)N[C@@H](CC(N)=O)C(=O)N2CCC[C@H]2C(=O)N2CCC[C@H]2C(=O)N[C@@H](CCCCN)C(=O)N[C@@H](CCCCN)C(=O)N[C@@H](Cc2ccccc2)C(=O)N[C@@H](CO)C(=O)NCC(=O)N[C@@H](CCC(=O)O)C(=O)O)[C@@H](C)CC)NC(=O)CNC(=O)[C@H](CC(C)C)NC(=O)CNC(=O)[C@H](CO)NC(=O)[C@H](C(C)C)NC(=O)[C@H](CO)NC(=O)CNC(=O)[C@H]([C@@H](C)CC)NC(=O)[C@H](CCCNC(=N)N)NC(=O)[C@H](CC(=O)O)NC(=O)[C@H](CC(C)C)NC(=O)[C@@H]2CCCN2C(=O)[C@H](Cc2ccccc2)NC(=O)CNC(=O)[C@H](Cc2ccccc2)NC1=O [TNPc A7] (H-SDSKIGAGCFGFPLDRIGSVSGLGCNRIMQNPPKKFSGE-OH; disulfide 9-25; N-terminus assumed) | 32.9 ± 4.5 | 6.867 ± 0.1915 | 1.61e-07 | did not recover after 2 hours | 64.0 | 71.3 | 7.3 ± 2.9 | −11.2
2 | CC[C@H](C)[C@@H]1NC(=O)[C@H](CCCNC(=N)N)NC(=O)[C@H](CC(=O)O)NC(=O)[C@H](CC(C)C)NC(=O)[C@@H]2CCCN2C(=O)[C@H](Cc2ccccc2)NC(=O)CNC(=O)[C@H](Cc2ccccc2)NC(=O)[C@@H](NC(=O)CNC(=O)[C@H](CO)NC(=O)CNC(=O)[C@H](CCC(N)=O)NC(=O)[C@@H](NC(=O)[C@H](CCSC)NC(=O)[C@H](CCCCN)NC(=O)[C@@H]2CCCN2C(=O)[C@@H](N)CO)C(C)C)CSSC[C@@H](C(=O)N[C@@H](CC(N)=O)C(=O)N[C@@H](CCCNC(=N)N)C(=O)N[C@H](C(=O)N[C@@H](CCSC)C(=O)N[C@@H](CCC(N)=O)C(=O)N[C@@H](CC(N)=O)C(=O)N2CCC[C@H]2C(=O)N2CCC[C@H]2C(=O)N[C@@H](CCCCN)C(=O)N[C@@H](CCCCN)C(=O)N[C@@H](Cc2ccccc2)C(=O)N[C@@H](CO)C(=O)NCC(=O)N[C@@H](CCC(=O)O)C(=O)O)[C@@H](C)CC)NC(=O)CNC(=O)[C@H](CC(C)C)NC(=O)CNC(=O)[C@H](CO)NC(=O)[C@H](C(C)C)NC(=O)[C@H](CO)NC(=O)CNC1=O [TNPc BTT] (H-SPKMVQGSGCFGFPLDRIGSVSGLGCNRIMQNPPKKFSGE-OH; disulfide 10-26; N-terminus assumed) | 62.1 ± 6.6 | 8.177 ± 0.1049 | 7.06e-09 | did not recover after 2 hours | 63.4 | 65.4 | 2.1 ± 1.5 | −10.8
3 | CC[C@H](C)[C@H](NC(=O)[C@H](CCCCN)NC(=O)[C@H](CO)NC(=O)[C@H](CC(=O)O)NC(=O)[C@@H](N)CO)C(=O)NCC(=O)N[C@@H](CC(N)=O)C(=O)NCC(=O)N[C@H]1CSSC[C@@H](C(=O)N[C@@H](CC(N)=O)C(=O)N[C@@H](CCCNC(=N)N)C(=O)N[C@H](C(=O)N[C@@H](CCSC)C(=O)N[C@@H](CCC(N)=O)C(=O)N[C@@H](CC(N)=O)C(=O)N2CCC[C@H]2C(=O)N2CCC[C@H]2C(=O)N[C@@H](CCCCN)C(=O)N[C@@H](CCCCN)C(=O)N[C@@H](Cc2ccccc2)C(=O)N[C@@H](CO)C(=O)NCC(=O)N[C@@H](CCC(=O)O)C(=O)O)[C@@H](C)CC)NC(=O)CNC(=O)[C@H](CC(C)C)NC(=O)CNC(=O)[C@H](CO)NC(=O)[C@H](C(C)C)NC(=O)[C@H](CO)NC(=O)CNC(=O)[C@H]([C@@H](C)CC)NC(=O)[C@H](CCCNC(=N)N)NC(=O)[C@H](CC(=O)O)NC(=O)[C@H](CC(C)C)NC(=O)[C@@H]2CCCN2C(=O)[C@H](Cc2ccccc2)NC(=O)CNC(=O)[C@H](CC2CCCCC2)NC1=O [TNPc Cha-10] (H-SDSKIGNGC[Cha]GFPLDRIGSVSGLGCNRIMQNPPKKFSGE-OH; disulfide 9-25; N-terminus assumed) | 64.2 ± 4.2 | 7.84 | 1.44e-08 | partially recovered | 67.3 | 76.5 | 9.1 ± 3.9 | −10.8
4 | SDSKISAGCFGFPLDRIGSVSGLGCNRIMQNPPKKFSGE (A portion of a natriuretic peptide) [TNPc A7S6] | 43.1 ± 8.6 | – | – | partially recovered | 56.3 | 66.8 | 10.5 ± 3.1 | −12.9
5 | SDSKISKGCFGFPLDRIGSVSGLGCNRIMQNPPKKFSGE (A portion of a natriuretic peptide) [TNPc K7S6] | 43.8 ± 4.3 | – | – | did not recover after 2 hours | 60.3 | 64.2 | 3.9 ± 2.6 | −12.6
6 | ZSDSKIGNGCFGFPLDRIGSVSGLGCNRIMQNPPKKFSGE ([pGlu]SDSKIGNGCFGFPLDRIGSVSGLGCNRIMQNPPKKFSGE; disulfide 10-26 (inferred); not fully specified; ends not checked) [TNPc Z0] | 61.5 ± 5.5 | – | – | partially recovered | 63.3 | 72.2 | 9.0 ± 1.0 | −11.0
